BindingDB's records for patent US20250313563 (The Broad Institute, 2025)
Where “and” joins values, the source holds several entries; their conditions need not be identical. Equal values may be shown once.

Tests used:
[1] = target: Glycogen synthase kinase-3 alpha (Homo sapiens, UniProt P49840); assay: TR-FRET Assay
In short: (§1)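 30 min preinc w/ cpd in assay buffer → kinase rxn → EDTA quench → add detection mix (40 nM SA-d2, 2 nM Tb-pSer641 Ab) → TR-FRET read.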

[2] = target: Glycogen synthase kinase-3 beta (Homo sapiens, UniProt P49841); assay: TR-FRET Assay
Sequence of Glycogen synthase kinase-3 beta (P49841 whole entry): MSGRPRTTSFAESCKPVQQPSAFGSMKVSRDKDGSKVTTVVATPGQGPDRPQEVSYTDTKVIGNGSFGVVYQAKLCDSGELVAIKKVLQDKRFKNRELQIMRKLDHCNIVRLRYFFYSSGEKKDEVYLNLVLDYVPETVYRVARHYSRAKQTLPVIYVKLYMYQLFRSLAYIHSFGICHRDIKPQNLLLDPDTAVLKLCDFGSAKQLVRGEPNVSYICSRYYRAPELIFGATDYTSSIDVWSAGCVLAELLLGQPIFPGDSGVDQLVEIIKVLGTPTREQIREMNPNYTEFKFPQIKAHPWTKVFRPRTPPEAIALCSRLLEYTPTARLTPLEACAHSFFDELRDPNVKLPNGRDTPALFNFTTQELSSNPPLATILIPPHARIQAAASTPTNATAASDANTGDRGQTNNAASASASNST
In short: as §1

Sequence of Glycogen synthase kinase-3 alpha (P49840 whole entry): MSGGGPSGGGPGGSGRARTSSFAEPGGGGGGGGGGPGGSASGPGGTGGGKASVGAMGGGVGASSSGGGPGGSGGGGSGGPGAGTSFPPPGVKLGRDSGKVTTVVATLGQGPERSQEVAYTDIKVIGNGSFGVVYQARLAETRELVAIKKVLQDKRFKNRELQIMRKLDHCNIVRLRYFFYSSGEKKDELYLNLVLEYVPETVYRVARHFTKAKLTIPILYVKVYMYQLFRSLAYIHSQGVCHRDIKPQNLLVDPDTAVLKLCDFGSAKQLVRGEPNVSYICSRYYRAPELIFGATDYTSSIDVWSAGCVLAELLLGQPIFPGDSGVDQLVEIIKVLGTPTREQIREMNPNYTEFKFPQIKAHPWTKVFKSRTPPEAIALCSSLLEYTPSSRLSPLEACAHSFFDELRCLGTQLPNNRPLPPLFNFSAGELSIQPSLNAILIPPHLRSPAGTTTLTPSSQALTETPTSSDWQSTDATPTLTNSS

With `CC[C@@]1(c2cccc(-c3ccnc(C)c3F)c2)C2=CN=NC2NC2=C1C(=O)CC(C)(C)C2` (some centres not stated) [US20250313563, Compound 927347] the IC50 [1] was < 100 nM and 100 to 1000 nM and the IC50 [2] was < 100 nM and 1000 to 5000 nM.
For `CC[C@@]1(c2cccc(NS(C)(=O)=O)c2)C2=CN=NC2NC2=C1C(=O)CC(C)(C)C2` (some centres not stated) [US20250313563, Compound 927348], the IC50 [1] was < 100 nM and the IC50 [2] was < 100 nM.
With `CC[C@]1(c2cccc(-c3ccnn3C)c2)C2=CN=NC2NC2=C1C(=O)NC(C)(C)C2` (some centres not stated) [US20250313563, Compound 927389] the IC50 [1] was < 100 nM and 100 to 1000 nM and the IC50 [2] was < 100 nM and 1000 to 5000 nM.
For `CC[C@@]1(c2cccc(-c3ccnn3C)c2)C2=CN=NC2NC2=C1C(=O)NC(C)(C)C2` (some centres not stated) [US20250313563, Compound 927390], the IC50 [1] was 100 to 1000 nM and the IC50 [2] was > 5000 nM.
In the case of `CCC1(c2cccc(N(C)c3nccc(OC)n3)c2)C2=CN=NC2NC2=C1C(=O)CC(C)(C)C2` (configuration not stated) [US20250313563, Compound 929387], the IC50 [1] is reported as < 100 nM and the IC50 [2] is reported as < 100 nM.
`CC[C@]1(c2cccc(C(F)(F)F)c2)C2=C(N=NC2)NC2=C1C(=O)N(Cc1ccccc1)C2` [US20250313563, Compound 929388] was tested, and the IC50 [1] was < 100 nM and 100 to 1000 nM and the IC50 [2] was 100 to 1000 nM.
For `CC[C@@]1(c2cccc(C(F)(F)F)c2)C2=C(N=NC2)NC2=C1C(=O)N(Cc1ccccc1)C2` [US20250313563, Compound 929389], the IC50 [1] was 1000 to 5000 nM and the IC50 [2] was > 5000 nM.
With `CCn1nccc1-c1cccc(C2(CC)C3=CN=NC3NC3=C2C(=O)CC(C)(C)C3)c1` (configuration not stated) [US20250313563, Compound 929398] the IC50 [1] was < 100 nM and the IC50 [2] was < 100 nM.
For `CCC1(c2cccc(-c3ccnn3C(C)C)c2)C2=CN=NC2NC2=C1C(=O)CC(C)(C)C2` (configuration not stated) [US20250313563, Compound 929399], the IC50 [1] was < 100 nM and the IC50 [2] was < 100 nM.
For `CCCn1nccc1-c1cccc(C2(CC)C3=CN=NC3NC3=C2C(=O)CC(C)(C)C3)c1` (configuration not stated) [US20250313563, Compound 929400], the IC50 [1] was < 100 nM and the IC50 [2] was < 100 nM.
`CCC1(c2cccc(-c3ccnn3CCC(C)C)c2)C2=CN=NC2NC2=C1C(=O)CC(C)(C)C2` (configuration not stated) [US20250313563, Compound 929401] was tested, and the IC50 [1] was < 100 nM and the IC50 [2] was < 100 nM.
For `CCC1(c2cccc(-c3cc(C)nn3C)c2)C2=CN=NC2NC2=C1C(=O)CC(C)(C)C2` (configuration not stated) [US20250313563, Compound 929402], the IC50 [1] was < 100 nM and the IC50 [2] was 100 to 1000 nM.
For `CC1(C)CC(=O)C2=C(C1)NC1=C(CN=N1)C21CN(Cc2ccccc2)C1` [US20250313563, Compound 929436], the IC50 [1] was > 5000 nM and the IC50 [2] was > 5000 nM.
With `CC1(C)CC(=O)C2=C(C1)NC1=C(CN=N1)C21CCN(S(=O)(=O)Cc2ccccc2)CC1` [US20250313563, Compound 929437] the IC50 [1] was < 100 nM and the IC50 [2] was < 100 nM and 100 to 1000 nM.
With `CC1(C)CC(=O)C2=C(C1)NC1=C(CN=N1)C21CN(Cc2ccccn2)C1` [US20250313563, Compound 929438] the IC50 [1] was > 5000 nM and the IC50 [2] was > 5000 nM.
In the case of `Cn1cc(CN2CC3(C2)C2=C(N=NC2)NC2=C3C(=O)CC(C)(C)C2)cn1` [US20250313563, Compound 929439], the IC50 [1] is reported as > 5000 nM and the IC50 [2] is reported as > 5000 nM.
In the case of `CC1(C)CC(=O)C2=C(C1)NC1=C(CN=N1)C21CN(S(=O)(=O)CC2CC2)C1` [US20250313563, Compound 929440], the IC50 [1] is reported as < 100 nM and the IC50 [2] is reported as < 100 nM.
In the case of `CC1(C)CC(=O)C2=C(C1)NC1=C(CN=N1)C21CN(CCc2ccccc2)C1` [US20250313563, Compound 929441], the IC50 [1] is reported as > 5000 nM and the IC50 [2] is reported as > 5000 nM.
`CC[C@@]1(c2cccc(N(C)C(=O)c3ccn(C)n3)c2)C2=CN=NC2NC2=C1C(=O)CC(C)(C)C2` (some centres not stated) [US20250313563, Compound 929442] was tested, and the IC50 [1] was < 100 nM and the IC50 [2] was 100 to 1000 nM.
`CC[C@]1(c2cccc(-c3ccnnc3)c2)C2=CN=NC2NC2=C1C(=O)CC(C)(C)C2` (some centres not stated) [US20250313563, Compound 929443] was tested, and the IC50 [1] was > 5000 nM and the IC50 [2] was > 5000 nM.
`CC[C@]1(c2cccc(N(C)c3ccnc(F)c3)c2)C2=CN=NC2NC2=C1C(=O)CC(C)(C)C2` (some centres not stated) [US20250313563, Compound 929444] was tested, and the IC50 [1] was < 100 nM and the IC50 [2] was < 100 nM.
For `CCc1cc(-c2cccc(C3(CC)C4=CN=NC4NC4=C3C(=O)CC(C)(C)C4)c2)cc(CC)n1` (configuration not stated) [US20250313563, Compound 929445], the IC50 [1] was 1000 to 5000 nM and the IC50 [2] was > 5000 nM.
Work on `CC1(C)CC(=O)C2=C(C1)NC1=C(CN=N1)C21CN(C2CCCCC2)C1` [US20250313563, Compound 929446] yielded an IC50 [1] of 1000 to 5000 nM and an IC50 [2] of 1000 to 5000 nM.
For `CCN1CC2(C1)C1=C(N=NC1)NC1=C2C(=O)CC(C)(C)C1` [US20250313563, Compound 929448], the IC50 [1] was > 5000 nM and the IC50 [2] was > 5000 nM.
For `CCC1(c2cccc(N3CCc4cnccc4C3)c2)C2=CN=NC2NC2=C1C(=O)CC(C)(C)C2` (configuration not stated) [US20250313563, Compound 929449], the IC50 [1] was 1000 to 5000 nM and the IC50 [2] was 1000 to 5000 nM.
For `CC[C@]1(c2cc(N(C)C(C)=O)ccc2F)C2=CN=NC2NC2=C1C(=O)CC(C)(C)C2` (some centres not stated) [US20250313563, Compound 929450], the IC50 [1] was < 100 nM and the IC50 [2] was 100 to 1000 nM.
